Measurements reported in patent US20120052544A1, “E[…] CELLS WITH PSORALENS” (priority 2010, published 2012).
Values joined by “and” are separate entries in the source; they are usually repeats but may differ in a detail not shown here. Equal entries are not always repeated.

Key:
[1] = test system: Xenopus sperm
Experimental: (§1) Sperm Enucleation. A small piece of fresh Xenopus testis was macerated with forceps, resuspended in 1×MMR containing 1-50 μM AMT, then filtered through a […] cell strainer (Falcon). The sperm suspension was spread onto a Petri dish then irradiated as described above and used immediately to fertilize fresh eggs. Mouse epididymal sperm were isolated in HTF medium (Quinn, 2000) and not filtered before irradiation.
Karyotype Analysis. Karyotype analysis was performed using a modified protocol (http:// followed “by faculty.virginia.edu/xtropicalis/KaryotypeXtropicalis.htm”). […] tailbud embryos were incubated in 0.1×MMR containing 10 μM nocodazole for 1-3 hours. The tailbud was bluntly dissected off with sharp needles, incubated in 60% acetic acid for 5 minutes, and squashed onto a Superfrost Plus microscope slide (V WR Scientific) under a coverslip and a lead brick. After 5 minutes, the slide was quick-frozen on a cake of dry ice, the coverslip was prized off with a razor blade, and the squashed tissue was stained with 0.1 μg/ml 4′,6-diamidino-2-phenylindole (DAPI). At least three high quality spreads were counted before assigning a karyotype.

[2] = test system: Mouse sperm; conditions: AMT+UV-treated sperm
Experimental: as §1
(§2) Eggs from super-ovulated mice were irradiated for 30 seconds with a handheld 4W UV lamp in the presence of 4-6 μM AMT, then parthenogenetically activated with strontium chloride and cultured in vitro for four days. […] In mouse embryos, however, checkpoints are active during the early cleavage divisions (Liu et al., 2000b; Takai et al., 2000).

[3] = test system: Mouse J2 3T3 fibroblasts; conditions: 5 μM AMT and UV light 2 minutes
Experimental: (§3) Feeder Cell Enucleation. […] Cells were irradiated from above for 30-60 seconds with a 4 W UVGL-25 Mineralite (UVP) using the long-wave setting, holding the lamp as close as possible to the brim of the culture dish with the lid removed. After irradiation cells were washed with PBS. H7/WA07 hESCs (National Stem Cell Bank) were plated on primary MEFs 24 hours later. These MEFs were between passages 2 and 5. For keratinocytes precursor cell culture, the MEFS were trypsinized immediately after treatment and plated with CIN612 cells.
The human keratinocyte precursor cell line CIN612 is widely used in studies of human papillomavirus (HPV) (Ozbun, 2002). CIN612 cells harbor episomal copies of HPV31b, a subtype that causes cervical cancer. The cells are typically grown on a feeder layer of mouse fibroblasts. Mouse J2 3T3 fibroblasts were treated with 5 μM AMT and UV light for 2 minutes, then trypsinized and plated with CIN612 cells.

[4] = test system: Mouse eggs; conditions: cultured four days
Experimental: as §2

[5] = test system: Xenopus eggs; test: Enucleation of Xenopus eggs with psoralen and long-wave UV light, then fertilization; format: cell-based; conditions: for Chromosome Number (Mean ± SD): embryos from eggs treated with psoralen + long-wave UV before fertilization, diploid control 36
[6] = test system: primary MEFs
Experimental: as §3
Human embryonic stem cells (hESCs) require a feeder layer of mouse embryonic fibroblasts (MEFs) to grow in culture (Thomson et al., 1998). […] The ability of MEFs to support hESC growth declines with time (VIIIa-Diaz et al., 2009).

[7] = test system: HeLa cells; test: Effect of psoralen+UV treatment on growth of HeLa cells
[8] = pigmented male sperm treated with AMT and UV, eggs from albino female
[9] = 5 μM MOP, long wave UV 1 minute, cultured three days

SMILES: Cc1oc2c(C)c3oc(=O)cc(C)c3cc2c1CN [AMT, 4′-aminomethyl-4, 5′, 8-trimethylpsoralen]
- Embryo outcome when both sperm and egg were treated ([1]; both sperm and egg AMT+UV-treated): underwent several irregular cleavage divisions before dying during the blastula stage
- Chromosome Number (Mean ± SD) ([1]; embryos from eggs fertilized with AMT + UV-treated sperm, karyotype analysis): 18 and 18.0 ± 0.0
- Appearance of tadpoles [1, 8]: typical haploid appearance
- Pigmentation of tadpoles [1, 8]: all were albino
- Effect on efficiency of fertilization ([1]; sperm treated with AMT and UV light): no effect
- Efficiency of enucleation ([1]; sperm, AMT + UV): 95±3%
- Psoralen concentration sufficient to completely destroy the nucleus ([1]; sperm, with UV irradiation): 1 µM
- Embryo outcome, AMT without UV exposure ([1]; unless fertilization performed in a darkroom under a safelight): sometimes gave rise to abnormal embryos
- Cleavage of fertilized zygotes ([2]; 20-40% with untreated sperm reached blastocyst): rarely cleaved even once
- Fertilization of mouse eggs in vitro by treated sperm ([2]; two pronuclei): successfully fertilized mouse eggs in vitro
- Growth rate of CIN612 cells on psoralen-treated feeders [3]: the same as on mitomycin-C treated feeders
- CIN612 colonies compared with mitomycin C-treated feeders ([3]; 3-7 days in culture): indistinguishable from those grown on mitomycin C-treated feeder cells
- Development of parthenogenetically activated eggs ([4]; 4-6 μM AMT, 30 seconds handheld 4W UV lamp): arrested development at the 1-2 cell stage
- Development of eggs treated with AMT only ([4]; AMT without UV): formed complete blastocysts
- Average efficiency of enucleation ([5]; 20 different clutches of eggs from different mothers): 87±11%
- Embryo development, AMT-only treated eggs ([5]; AMT without UV): normal diploid embryos
- DNA content of somatic cells versus cells from untreated eggs ([5]; AMT+UV-treated eggs, primary cultures from pools of 20 tadpoles, flow cytometry): exactly half
- Rates of fertilization and development into haploid tadpoles ([5]; after psoralen+UV treatment of eggs): 80-100%
- Appearance of tadpoles ([5]; eggs in 50 μM AMT 5 min, irradiated 5 min, 100 W UV 300-400 nm, then fertilized): typical haploid appearance
- Outcome with shorter irradiation or lower concentrations ([5]; eggs irradiated for shorter periods or with lower concentrations of AMT): abnormal embryos
- Haploid embryos expressing GFP ([5]; eggs of CMV-GFP(+) female treated with AMT and UV, fertilized with GFP(−) sperm, untreated 63%): virtually none
- Chromosome Number (Mean ± SD) ([5]; karyotype analysis): 18 and 18.0 ± 0.0
- Concentration providing ideal enucleation conditions ([5]; irradiation of eggs for 2-5 minutes): 25 to 50 µM
- Chromosome number of most surviving abnormal embryos ([5]; shorter irradiation or lower AMT concentrations, karyotype analysis): 32-34
- Comparison of colonies with those on gamma-irradiated MEFs ([6]; 5 μM AMT, long-wave UV 30 seconds): indistinguishable from those grown on gamma-irradiated MEFs
- Appearance of hESC colonies on treated MEFs ([6]; 5 μM AMT, long-wave UV 30 seconds, H7/WA07 hESCs after 5 days): healthy-appearing hESC colonies with smooth rounded borders
- Time after treatment within which plating maintains hESCs undifferentiated ([6]; AMT+UV-treated MEFs, noticeable decrease after 8 days): ≤ 6 days
- Oct3/4 expression of hESCs ([6]; on AMT+UV-treated MEFs): normal amounts

SMILES: COc1c2occc2cc2ccc(=O)oc12 [MOP, 8-methoxypsoralen]
- Cell viability [7, 9]: 80-100%
- HeLa cell growth [7, 9]: effectively arrested HeLa cell growth
- Chk1 phosphorylation, MOP without UV exposure ([7]; MOP without UV): little or no Chk1 phosphorylation
- Growth of cells incubated in MOP without UV exposure ([7]; MOP without UV): grew normally
- S345-phosphorylated Chk1 ([7]; MOP+UV-arrested cells, immunoblotting): high levels
- Cell cycle distribution (flow cytometry) ([7]; MOP+UV-treated cells): arrested in S and G2/M phases of the cell cycle
- Proliferation in culture ([7]; MOP+UV-treated, untreated doubling time close to 24 hours): did not proliferate
- Chromosome Number (Mean ± SD) ([5]; karyotype analysis): 18.0 ± 0.0
